In patent EP4817688A2, “DEGRADING PKCß1 TO TREAT CANCER” (Mayo Foundation for Medical Education and Research, priority 2020, dated 2022):
“And” between values parts separate entries of the source, which are not always exact repeats. Equal entries are not always repeated. Where two headings read alike, the source gives them in different places.

Columns and labels:
MDAMB231 cells = experiment: crystal violet (CV) proliferation assay, MDAMB231; type: cell-based; conditions: Homo sapiens, MDA-MB-231, MDAMB231 (PKCβ1^high, Rb^positive) 2000 cells
Protocol: (§1) Cell proliferation rates were determined using crystal violet assays. One thousand cells per well were plated in 96 well tissue culture plates and treated the following day with a bifunctional compound or control for 7 days in replicates of 8. Cells were fixed with 25% glutaraldehyde for 10 minutes with shaking, washed 5 times with distilled water, stained with a 1% crystal violet solution (solubilized in 25% methanol) for 10 minutes, washed again 5 times and allowed to dry. De-staining was performed using […] sodium citrate in 50% ethanol followed by quantification using a 96 well spectrophotometer set at an absorbance of 550 nm.

BT549 cells = experiment: crystal violet (CV) proliferation assay, BT549; type: cell-based; conditions: Homo sapiens, BT-549, BT549 (PKCβ1^high, Rb^regative) 2000 cells
Protocol: as §1

[1] = system: Rb-proficient MDAMB231 and Rb-deficient BT549 and MDAMB436 cells; experiment: crystal violet (CV) proliferation assay, TNBC cells (text statements covering several lines); type: cell-based; conditions: MDAMB231 and BT549 cells (FIG. 4A and TABLE 1)
Protocol: as §1

[2] = pharmacokinetics in female CD1 mice, plasma by UPLC-MS/MS; type: in vivo; conditions: for Tmax: read-out: time of peak plasma concentration (converted); for half-life: read-out: terminal half-life (converted); for Concentration ENDX PROTAC 9: listed as ENDX PROTAC 9, 1 mg/kg
Protocol: ENDX PROTAC 7 and PROTAC 9 pharmacokinetics were characterized in female CD1 mice. Blood samples were collected from mice anesthetized under isoflurane via retro-orbital eye bleed into tubes containing EDTA and immediately chilled on ice. NaF was added to the EDTA collection tubes to help stabilize the drug in whole blood for the second IV and IP studies with ENDX PROTAC 9, and for the IV and oral studies with PROTAC 7. Plasma and red blood cells were separated immediately by centrifugation in a refrigerated centrifuge at 4°C. The plasma was transferred to a separate tube and immediately frozen at -20°C.
For IV dosing, ENDX PROTAC 9 was dissolved in 10% DMSO, 10% PEG 400, and 80% normal saline for a final concentration of 0.2 mg/mL ENDX PROTAC 9 for the 1 mg/kg IV doses. ENDX PROAC 7 was dissolved in 15% DMSO, 9.44% PEG400, and 55% normal saline for a final concentration of 0.19 mg/mL for the 1 mg/kg IV doses. Blood samples (3 mice per time-point) were collected 5 minutes, 15 minutes, 0.5 hour, 1 hour, 2 hours, 4 hours, 8 hours, and 24 hours after administration of the ENDX PROTAC. […] For oral dosing, ENDX PROTAC 9 (10 mg/kg) and ENDX PROTAC 7 (10 mg/kg) were suspended in 1 mM ascorbic acid:PEG400, 1:1 v/v for a final concentration of 1.0 mg/mL ENDX PROTAC. Blood samples (three mice per time-point) were collected 15 minutes, 0.5 hour, 1 hour, 2 hours, 4 hours, 6 hours, 8 hours, and 24 hours after administering the ENDX PROTAC. For I.P. dosing, ENDX PROTAC 9 (4 mg/kg) was prepared in 1 mM ascorbic acid:PEG400, 1:1 v/v for a final concentration of 0.4 mg/mL ENDX PROTAC 9. Blood samples (three mice per time-point) were collected 15 minutes, 0.5 hour, 1 hour, 2 hours, 4 hours, 6 hours, 8 hours, and 24 hours after administration. Plasma concentrations of ENDX PROTAC 7 and 9 were measured using UPLC-MS/MS.

[3] = mouse, plasma, iv, 1 mg/kg, I.V. 1 mg/kg, first study without NaF
[4] = mouse, plasma, iv, 1 mg/kg, I.V. 1 mg/kg, second study with NaF

## CCC(=C(c1ccc(O)cc1)c1ccc(OCCN(C)C(=O)COCCOCCNC(=O)Cc2ccc3c(c2)CN(C2CCC(=O)NC2=O)C3=O)cc1)c1ccccc1 (stereo not shown) [TC-Pr-009, 2-[2-(2-2-[2-(2,6-dioxopiperidin-3-yl)-1-oxo-2,3-dihydro-1H-isoindol-5-yl]acetamidoethoxy)ethoxy]-N-(2-4-[1-(4-hydroxyphenyl)-2-phenylbut-1-en-1-yl]phenoxyethyl)-N-methylacetamide]
MDAMB231 cells
  IC50: 131 nM
BT549 cells
  IC50: 67 nM
[1]
  apoptosis: induced apoptosis
[2]; inferred from IV studies with and without NaF
  stability in whole blood: unstable in whole blood
[2]; mouse, plasma, ip, 4 mg/kg, I.P. 4 mg/kg, read-out: peak plasma concentration
  Cmax: 135 ng/mL
[2]; mouse, plasma, ip, I.P. 4 mg/kg, read-out: bioavailability of the I.P. dose
  bioavailability: 225%
[2]; mouse, plasma, ip, I.P. 4 mg/kg
  Tmax: 30 min
[2]; [3]
  clearance: 730 mL/min/kg
  half-life: 60 min
[2]; mouse, plasma, iv, 1 mg/kg, I.V. 1 mg/kg, samples collected without added NaF, read-out: peak plasma concentration
  Cmax: 47.2 ng/mL
[2]; [4]
  clearance: 478 mL/min/kg
  half-life: 39.6 min
[2]; mouse, plasma, iv, 1 mg/kg, I.V. 1 mg/kg, second study, NaF added to EDTA tubes, read-out: peak plasma concentration
  Cmax: 70.9 ng/mL
[2]; mouse, plasma, iv, 1 mg/kg, plasma, IV 1 mg/kg, EDTA without NaF, 30 minutes, individual mice, read-out: Concentration ENDX PROTAC 9
  concentration at 0.5 h: 1.81 ng/mL
[2]; mouse, plasma, iv, 1 mg/kg, plasma, IV 1 mg/kg, all data (both IV studies), 30 minutes, read-out: Concentration ENDX PROTAC 9
  concentration at 0.5 h: 2.83 ng/mL
[2]; mouse, plasma, iv, I.V. 1 mg/kg, samples collected without added NaF
  Tmax: 5 min
[2]; mouse, plasma, po, 10 mg/kg, oral 10 mg/kg, read-out: average peak plasma concentration
  Cmax: 11.1 ng/mL
[2]; mouse, plasma, po, 10 mg/kg, plasma, PO 10 mg/kg, 30 minutes, individual mice, read-out: Concentration ENDX PROTAC 9
  concentration at 0.5 h: 0.74 ng/mL
[2]; mouse, plasma, po, 10 mg/kg, plasma, PO 10 mg/kg, 480 minutes, individual mice, read-out: Concentration ENDX PROTAC 9
  concentration at 8 h: 0.08 ng/mL
[2]; mouse, plasma, po, 10 mg/kg, plasma, TABLE 7, titled PO pk (10 mg/kg), 15 minutes, individual mice, read-out: Concentration ENDX PROTAC 9
  concentration at 0.25 h: 108 ng/mL
[2]; mouse, plasma, po, 10 mg/kg, plasma, TABLE 7, titled PO pk (10 mg/kg), 30 minutes, individual mice, read-out: Concentration ENDX PROTAC 9
  concentration at 0.5 h: 166 ng/mL
[2]; mouse, plasma, po, 10 mg/kg, plasma, TABLE 7, titled PO pk (10 mg/kg), 60 minutes, individual mice, read-out: Concentration ENDX PROTAC 9
  concentration at 1 h: 131 ng/mL
[2]; mouse, plasma, oral 10 mg/kg vs IV 1 mg/kg, read-out: Oral bioavailability
  bioavailability: 8.8%
[2]; mouse, plasma, oral 10 mg/kg
  Tmax: 60 min
[2]; plasma, IV 1 mg/kg, EDTA without NaF, 5 minutes, individual mice
  Concentration ENDX PROTAC 9: 49.449 ng/mL and 47.9659 ng/mL and 12.7855 ng/mL
[2]; plasma, IV 1 mg/kg, EDTA without NaF, 15 minutes, individual mice
  Concentration ENDX PROTAC 9: 44.1034 ng/mL and 9.4992 ng/mL and 7.241 ng/mL
[2]; plasma, IV 1 mg/kg, EDTA without NaF, 30 minutes, individual mice
  Concentration ENDX PROTAC 9: 1.662 ng/mL
[2]; plasma, IV 1 mg/kg, EDTA without NaF, 60 minutes, individual mice
  Concentration ENDX PROTAC 9: 0.5069 ng/mL and 0.2706 ng/mL and 0.0179 ng/mL
